As usually defined, the IC50 is the midpoint of a concentration-inhibition curve. One may read the AUC as the area under the concentration-time curve, a measure of exposure. The AUC(0-t) is exposure summed from dosing to a finite time, without extrapolation to infinity. One may read the Cmax as the peak of the concentration-time curve. In general, Tmax refers to the time at which the peak concentration occurs.

One series deals with T1, Human HDAC10 (Homo sapiens, UniProt Q969S8).
T1 construct: Human HDAC10 (a.a. 1-481); GST tag (N); His tag (C); made in house; host or cells: baculovirus expression system
T1 sequence (Q969S8 1-481): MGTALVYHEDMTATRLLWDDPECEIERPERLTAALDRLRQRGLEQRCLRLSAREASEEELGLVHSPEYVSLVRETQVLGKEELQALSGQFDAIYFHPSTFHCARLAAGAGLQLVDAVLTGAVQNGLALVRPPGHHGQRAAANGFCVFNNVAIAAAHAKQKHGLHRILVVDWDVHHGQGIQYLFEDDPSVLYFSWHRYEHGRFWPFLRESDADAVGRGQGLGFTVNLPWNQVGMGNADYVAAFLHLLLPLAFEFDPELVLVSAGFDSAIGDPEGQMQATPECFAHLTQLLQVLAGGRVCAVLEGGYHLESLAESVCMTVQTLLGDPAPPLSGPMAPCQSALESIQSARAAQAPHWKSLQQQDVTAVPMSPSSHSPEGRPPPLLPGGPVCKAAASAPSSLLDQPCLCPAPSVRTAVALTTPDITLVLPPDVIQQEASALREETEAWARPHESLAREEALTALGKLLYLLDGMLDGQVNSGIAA
The series can be described thus: Biochemical HDAC enzymatic assay, HDAC10. As to conditions: Table 2; incubation time 10 min. Here is the method:
(§1) Incubation time for HDAC1/2 is 120 min, and 10 min for other HDACs.
Human HDAC10 (a.a. 1-481), GenBank Accession No. NM_032019 with a N-terminal GST tag and a C-terminal His tag, MW=78 kDa, was expressed in a baculovirus expression system.
(§2) • I. Compound handling: Testing compounds were dissolved in 100% DMSO to a specific concentration. The serial dilution was conducted by epMotion 5070 in DMSO. • II. HDAC reaction buffer: 50 mM Tris-HCl, pH8.0, 137 mM NaCl, 2.7 mM KCl, and 1 mM MgCl2, Added fresh: 1 mg/ml BSA, 1% DMSO. • III. […] Delivered 2× Substrate Mixture (Fluorogenic HDAC Substrate and co-factor ([…] of Nicotinamide adenine dinucleotide (NAD^+) in all Sirt assay) in all reaction wells to initiate the reaction. Spin and shake. • d. Incubated for 1-2 hr. at 30° C. with seal. • e. Added Developer with Trichostatin A (or TMP269 or NAD^+) to stop the reaction and to generate fluorescent color. • f. Fluorescence was read (excitatory, 360; emission, 460) using the EnVision Multilabel Plate Reader (Perkin Elmer) • g. Endpoint reading was taken for analysis after the development reaches plateau. • V. Data Analysis: The percentages of enzyme activity (relative to DMSO controls) and IC50 values were calculated using the GraphPad Prism 4 program based on a sigmoidal dose-response equation. […]

In the next series the target is T2, Human HDAC5 (Homo sapiens, UniProt Q9UQL6).
T2 construct: full-length with an N-terminal GST tag, MW=150 kDa; GST tag (N); made in house; host or cells: baculovirus expression system
T2 sequence (Q9UQL6 whole entry): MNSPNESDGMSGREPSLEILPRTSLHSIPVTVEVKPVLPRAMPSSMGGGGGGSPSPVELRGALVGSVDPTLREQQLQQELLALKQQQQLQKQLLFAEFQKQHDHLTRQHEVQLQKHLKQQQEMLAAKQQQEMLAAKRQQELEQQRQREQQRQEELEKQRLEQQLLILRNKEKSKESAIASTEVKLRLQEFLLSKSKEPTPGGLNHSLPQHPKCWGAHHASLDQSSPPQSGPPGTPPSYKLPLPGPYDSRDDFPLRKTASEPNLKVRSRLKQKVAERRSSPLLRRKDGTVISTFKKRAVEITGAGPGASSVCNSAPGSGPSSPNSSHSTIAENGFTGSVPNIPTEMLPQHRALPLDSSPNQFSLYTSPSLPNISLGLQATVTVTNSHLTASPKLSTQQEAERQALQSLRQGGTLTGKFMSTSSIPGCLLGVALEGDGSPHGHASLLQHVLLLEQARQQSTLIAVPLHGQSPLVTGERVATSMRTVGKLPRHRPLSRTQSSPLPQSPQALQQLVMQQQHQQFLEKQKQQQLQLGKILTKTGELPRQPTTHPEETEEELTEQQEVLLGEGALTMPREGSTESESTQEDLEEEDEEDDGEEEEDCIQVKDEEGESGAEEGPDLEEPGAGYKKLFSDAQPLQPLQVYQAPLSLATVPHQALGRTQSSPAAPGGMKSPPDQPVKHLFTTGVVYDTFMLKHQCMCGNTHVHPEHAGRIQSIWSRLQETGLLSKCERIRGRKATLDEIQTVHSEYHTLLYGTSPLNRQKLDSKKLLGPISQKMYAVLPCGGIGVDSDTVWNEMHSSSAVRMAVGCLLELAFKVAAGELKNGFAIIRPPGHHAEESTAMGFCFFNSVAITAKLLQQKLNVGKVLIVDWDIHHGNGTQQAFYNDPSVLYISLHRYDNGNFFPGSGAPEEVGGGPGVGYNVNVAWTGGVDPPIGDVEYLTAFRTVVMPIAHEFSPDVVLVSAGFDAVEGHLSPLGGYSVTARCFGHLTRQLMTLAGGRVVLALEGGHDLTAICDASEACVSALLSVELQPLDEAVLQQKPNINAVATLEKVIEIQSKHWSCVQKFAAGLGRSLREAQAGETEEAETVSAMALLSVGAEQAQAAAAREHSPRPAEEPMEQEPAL
The series can be described thus: Biochemical HDAC enzymatic assay, HDAC5. As to conditions: Table 2; incubation time 10 min. The protocol:
as §1
Human HDAC5 (GenBank Accession No. NM_005474), full-length with an N-terminal GST tag, MW=150 kDa, was expressed in a baculovirus expression system.
as §2

A short description of series [1]: Mouse plasma PK after oral administration. In kind it is in vivo. Here is the method:
(§3) In vivo PK (pharmacokinetics) studies were run at Scripps Florida DMPK Core facility. Mouse plasma PK data was obtained using Compound Example 4 (N-(2-amino-5-(thiophen-2-yl)phenyl)-6-(8-methyl-2-oxo-1-oxa-3,8-diazaspiro[4.5]decan-3-yl)nicotinamide)
(§4) Dose: 1 mg/kg intravenous (IV) and 7 mg/kg oral dosage (PO)
(§5) Formulation: 0.1 mg/mL IV and 1 mg/mL PO solution in 10/10/80 DMSO/Tween80/Water
(§6) Mice Info: Male C57 Bl/6J

A short description of series [2]: Mouse plasma PK after IV administration. In kind it is in vivo. As to conditions: for AUC(0-inf): read-out: AUCINF_obs (converted); for MRT inf: read-out: MRTINF_obs. Here is the method: as §3, §4, §5, §6
Where [3] appears, read: mouse plasma, 7 mg/kg PO, Average.
[4] abbreviates: mouse plasma, 7 mg/kg PO, individual mice, 7 mg/kg.
Setting [5] is: 1 mg/kg IV, individual mice, 1 mg/kg.
The mark [6] stands for this setting: male, C57 Bl/6J, mouse, plasma, iv, 1 mg/kg, 1 mg/kg IV, Average.
Where [7] appears, read: male, C57 Bl/6J, mouse, plasma, iv, 1 mg/kg, 1 mg/kg IV, individual mice.

Where “and” joins values, the source holds several entries; their conditions need not be identical. Equal entries are not always repeated. Where two headings read alike, the source gives them in different places.

Regarding `CN(C)C(=O)N1CCC2(CC1)c1ccccc1C(=O)N2Cc1ccc(C(=O)NO)cc1` [Compound Example 11, 2-(4-(hydroxycarbamoyl)benzyl)-N,N-dimethyl-3-oxospiro[isoindoline-1,4′-piperidine]-1′-carboxamide], the IC50 against Human HDAC10 is over 10 µM; on Human HDAC5 it was 1.55 µM.
The corresponding values for `O=C(NO)c1ccc(CN2C(=O)c3ccccc3C23CCN(C2CC2)CC3)cc1` [Compound Example 12, 4-((1′-cyclopropyl-3-oxospiro[isoindoline-1,4′-piperidin]-2-yl)methyl)-N-hydroxybenzamide] are over 10 µM and over 10 µM.
As to `CN1CCC2(CC1)CN(c1ccc(C(=O)Nc3cc(-c4cccs4)ccc3N)cn1)C(=O)O2` [Example 4, N-(2-amino-5-(thiophen-2-yl)phenyl)-6-(8-methyl-2-oxo-1-oxa-3,8-diazaspiro[4.5]decan-3-yl)nicotinamide], the AUC was about 16 µM·h in series [1] (male, C57 Bl/6J, 7 mg/kg, mouse plasma, oral dosing, read-out: AUC (area under curve)) and about 7.3 µM·h in series [2] (male, C57 Bl/6J, 1 mg/kg, IV administration). The AUC(0-t) in series [1] (male, C57 Bl/6J, mouse, plasma, po, 7 mg/kg, mouse plasma, 7 mg/kg PO, Average) is 7380 ng·h/mL and 15.9 µM·h; in series [2] (setting [6]), 3380 ng·h/mL and 7.3 µM·h; in series [2] (setting [7]), 3540 ng·h/mL and 7.64 µM·h. Moreover, the AUC(0-inf) is 7860 ng·h/mL in series [1] (male, C57 Bl/6J, mouse, plasma, po, 7 mg/kg, mouse plasma, 7 mg/kg PO, Average, read-out: AUCINF_obs (converted)); 3420 ng·h/mL in series [2] (setting [6]); 3550 ng·h/mL in series [2] (setting [7]). Also, the Cmax in series [1] (male, C57 Bl/6J, mouse, plasma, po, 7 mg/kg, mouse plasma, 7 mg/kg PO, Average, read-out: Cmax) was 2490 ng/mL and 5.39 µM; in series [1] (male, C57 Bl/6J, mouse, plasma, po, 7 mg/kg, mouse plasma, 7 mg/kg PO, individual mice, read-out: Cmax), 3200 ng/mL and 6.91 µM; in series [1] (setting [4]), 1930 ng/mL and 2350 ng/mL; in series [1] (mouse plasma, 7 mg/kg PO, individual mice, 7 mg/kg, read-out: Cmax), 4.17 µM and 5.08 µM; in series [2] (setting [5]), 2490 ng/mL and 2040 ng/mL; in series [2] (1 mg/kg IV, individual mice, 1 mg/kg, read-out: Cmax), 5.38 µM and 4.41 µM. The Cmax in series [2] (male, C57 Bl/6J, mouse, plasma, iv, 1 mg/kg, 1 mg/kg IV, Average, read-out: Cmax) was 2030 ng/mL and 4.38 µM; in series [2] (male, C57 Bl/6J, mouse, plasma, iv, 1 mg/kg, 1 mg/kg IV, individual mice, read-out: Cmax) it was 1560 ng/mL and 3.37 µM. The half-life was 1.9 h in series [1] (male, C57 Bl/6J, mouse, plasma, po, 7 mg/kg, mouse plasma, 7 mg/kg PO, Average, read-out: T1/2 (converted)); 1.65 h in series [1] (male, C57 Bl/6J, mouse, plasma, po, 7 mg/kg, mouse plasma, 7 mg/kg PO, individual mice (Mouse-1 to Mouse-3), read-out: T1/2 (converted)); 1.9 h in series [1] (male, C57 Bl/6J, mouse, plasma, po, 7 mg/kg, mouse plasma, oral dosing, read-out: half-life (converted)); 1.16 h in series [2] (male, C57 Bl/6J, mouse, plasma, iv, 1 mg/kg, 1 mg/kg IV, Average, read-out: T1/2 (converted)); 0.86 h in series [2] (male, C57 Bl/6J, mouse, plasma, iv, 1 mg/kg, 1 mg/kg IV, individual mice (Mouse-1 to Mouse-3), read-out: T1/2 (converted)); 1.2 h in series [2] (male, C57 Bl/6J, mouse, plasma, iv, 1 mg/kg, IV administration, read-out: half-life (T1/2) (converted)). The bioavailability in series [1] (male, C57 Bl/6J, plasma, 7 mg/kg, mouse, oral dosing, read-out: bioavailability (% F)) amounted to 31%; in series [1] (male, C57 Bl/6J, plasma, mouse, 7 mg/kg PO vs 1 mg/kg IV, Average, read-out: % F), 31%. The Tmax in series [1] (male, C57 Bl/6J, mouse plasma, 7 mg/kg PO, individual mice) was 1 h; in series [2] (male, C57 Bl/6J, 1 mg/kg IV, individual mice) it was 4.8 min. For the same compound, the “AUC (% Extrap)” value is 6.54% in series [1] (setting [3]); 5.20% and 9.47% and 4.97% in series [1] (setting [4]); 1.08% in series [2] (1 mg/kg IV, Average); 0.30% and 1.04% and 1.89% in series [2] (setting [5]). The Cl_obs in series [1] (setting [3]) is 16.34 mL/min/kg; in series [1] (setting [4]), 10.13 mL/min/kg and 20.88 mL/min/kg and 18.01 mL/min/kg; in series [2] (1 mg/kg IV, Average), 4.93 mL/min/kg; in series [2] (setting [5]), 4.70 mL/min/kg and 5.63 mL/min/kg and 4.46 mL/min/kg. For the same compound, the T1/2 is 2.25 h and 1.78 h in series [1] (mouse plasma, 7 mg/kg PO, individual mice (Mouse-1 to Mouse-3), 7 mg/kg); 1.33 h and 1.28 h in series [2] (1 mg/kg IV, individual mice (Mouse-1 to Mouse-3), 1 mg/kg). Moreover, the AUCINF_obs in series [1] (setting [4]) was 690882 ng·min/mL and 335315 ng·min/mL and 388640 ng·min/mL; in series [2] (setting [5]), 177722 ng·min/mL and 224191 ng·min/mL. The AUClast in series [1] (setting [4]) is 654948 min*ng/mL and 303573 min*ng/mL and 369340 min*ng/mL and 23.58 μM.hr and 10.93 μM.hr and 13.30 μM.hr; in series [2] (setting [5]), 175879 ng·min/mL and 219951 ng·min/mL. Besides, the Vss_obs is 0.54 L/kg in series [2] (1 mg/kg IV, Average); 0.50 L/kg and 0.59 L/kg and 0.53 L/kg in series [2] (setting [5]). Also, the AUC last in series [2] (setting [5]) was 6.33 µM·h and 7.92 µM·h. Moreover, in series [2] (setting [5]), the MRTINF_obs was 1.74 h and 1.97 h. In series [2] (IV administration), the “clearance (in words)” value is recorded as “low clearance”. In addition, the “volume (in words)” value in series [2] (IV administration) is reported as “low volume”. Further, the MRT inf in series [2] (setting [6]) was 1.82 h; in series [2] (setting [7]), 1.76 h.

(Values after patent US11155550B2, “Histone deacetylase inhibitors and methods of use thereof” (Reaction Biology Corp., priority 2018, dated 2021).)
